ChEMBL document CHEMBL1201862, “PubChem BioAssay data set” (2004)
Active and inactive are the calls of the source.

Experiments:
[1] = molecular target: Acyl-homoserine lactone acylase PvdQ (Pseudomonas aeruginosa (strain LESB58), UniProt Q9I194); experiment: P. aeruginosa PvdQ acylase inhibitors, dose response, biochemical, fluorescence, plate reader and imaging, cherry-picks (AID 493231)
[2] = molecular target: Lysosomal acid glucosylceramidase (Homo sapiens, UniProt P04062); experiment: Dose response cell-based high throughput screening assay to identify enhancers of beta-glucosidase activity. [Related pubchem assays: 784 ]; assay type: functional
[3] = molecular target: Peroxisome proliferator-activated receptor gamma (Homo sapiens, UniProt P37231); experiment: PPARg ligand-binding domain binders, dose response, PPARg partial agonist project, biochemical, TR-FRET, LanthaScreen (AID 504446)
[4] = molecular target: T1, Eukaryotic translation initiation factor 2-alpha kinase 3 (Homo sapiens, UniProt Q9NZJ5); experiment: Dose response cell-based high-throughput screening assay to measure PERK inhibition. [Related pubchem assays: 1416 ]; assay type: functional
[5] = molecular target: T1, Eukaryotic translation initiation factor 2-alpha kinase 3; experiment: Counterscreen assay for PERK inhibitors: Dose response cell-based high throughput screening assay to measure inhibition of PERK at 6 hours. [Related pubchem assays: 1522, 1416 ]; assay type: functional

T1 sequence (Q9NZJ5 whole entry): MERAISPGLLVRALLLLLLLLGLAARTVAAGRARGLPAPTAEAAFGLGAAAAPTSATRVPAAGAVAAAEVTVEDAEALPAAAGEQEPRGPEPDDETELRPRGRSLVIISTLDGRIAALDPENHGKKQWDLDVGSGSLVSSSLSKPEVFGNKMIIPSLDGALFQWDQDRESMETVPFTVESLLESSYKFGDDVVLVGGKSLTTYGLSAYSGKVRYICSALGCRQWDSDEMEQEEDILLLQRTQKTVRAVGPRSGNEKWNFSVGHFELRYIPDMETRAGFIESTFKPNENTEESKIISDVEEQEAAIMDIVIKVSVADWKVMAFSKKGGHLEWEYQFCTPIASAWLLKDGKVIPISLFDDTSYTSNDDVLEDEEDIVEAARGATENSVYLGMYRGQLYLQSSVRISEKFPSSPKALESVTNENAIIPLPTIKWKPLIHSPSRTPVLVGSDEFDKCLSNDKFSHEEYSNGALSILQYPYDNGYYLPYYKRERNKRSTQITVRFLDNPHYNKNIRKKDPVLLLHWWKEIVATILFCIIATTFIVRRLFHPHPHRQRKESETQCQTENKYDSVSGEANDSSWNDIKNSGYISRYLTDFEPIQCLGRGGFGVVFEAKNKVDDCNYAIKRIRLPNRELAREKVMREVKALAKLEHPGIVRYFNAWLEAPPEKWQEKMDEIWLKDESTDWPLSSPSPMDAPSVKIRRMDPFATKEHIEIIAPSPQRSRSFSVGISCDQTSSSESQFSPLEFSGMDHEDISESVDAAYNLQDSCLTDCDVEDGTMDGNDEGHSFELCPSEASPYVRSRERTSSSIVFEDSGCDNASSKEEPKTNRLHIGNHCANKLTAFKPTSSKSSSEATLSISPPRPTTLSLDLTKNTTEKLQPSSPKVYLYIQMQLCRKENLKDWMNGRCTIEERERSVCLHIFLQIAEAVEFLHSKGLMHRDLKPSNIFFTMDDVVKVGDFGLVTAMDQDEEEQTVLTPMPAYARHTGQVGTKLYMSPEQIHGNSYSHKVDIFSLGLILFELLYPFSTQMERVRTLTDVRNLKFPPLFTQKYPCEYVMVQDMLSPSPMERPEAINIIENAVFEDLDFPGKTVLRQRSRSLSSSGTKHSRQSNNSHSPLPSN
Sequence of Lysosomal acid glucosylceramidase (P04062 whole entry, the tested form may be a part): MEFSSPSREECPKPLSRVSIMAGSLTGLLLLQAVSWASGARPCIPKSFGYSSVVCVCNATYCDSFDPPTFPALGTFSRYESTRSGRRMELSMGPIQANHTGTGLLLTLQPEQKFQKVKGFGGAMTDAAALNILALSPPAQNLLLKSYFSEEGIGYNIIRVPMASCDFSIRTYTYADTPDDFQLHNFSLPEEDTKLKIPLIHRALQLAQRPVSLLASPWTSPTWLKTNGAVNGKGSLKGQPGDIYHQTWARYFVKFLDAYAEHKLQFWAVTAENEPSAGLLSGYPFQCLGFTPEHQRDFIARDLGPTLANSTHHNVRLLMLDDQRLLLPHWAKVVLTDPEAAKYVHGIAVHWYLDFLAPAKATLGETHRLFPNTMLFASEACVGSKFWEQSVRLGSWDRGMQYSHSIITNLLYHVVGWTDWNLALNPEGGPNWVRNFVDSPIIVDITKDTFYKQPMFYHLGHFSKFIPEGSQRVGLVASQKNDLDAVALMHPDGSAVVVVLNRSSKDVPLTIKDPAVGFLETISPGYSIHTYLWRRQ
Sequence of Acyl-homoserine lactone acylase PvdQ (Q9I194 24-193 limits assumed): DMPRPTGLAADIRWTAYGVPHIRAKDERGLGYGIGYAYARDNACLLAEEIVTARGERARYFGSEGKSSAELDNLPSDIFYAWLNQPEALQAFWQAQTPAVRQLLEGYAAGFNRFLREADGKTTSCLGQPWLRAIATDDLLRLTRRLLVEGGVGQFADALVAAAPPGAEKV
Sequence of Acyl-homoserine lactone acylase PvdQ (Q9I194 217-762 limits assumed): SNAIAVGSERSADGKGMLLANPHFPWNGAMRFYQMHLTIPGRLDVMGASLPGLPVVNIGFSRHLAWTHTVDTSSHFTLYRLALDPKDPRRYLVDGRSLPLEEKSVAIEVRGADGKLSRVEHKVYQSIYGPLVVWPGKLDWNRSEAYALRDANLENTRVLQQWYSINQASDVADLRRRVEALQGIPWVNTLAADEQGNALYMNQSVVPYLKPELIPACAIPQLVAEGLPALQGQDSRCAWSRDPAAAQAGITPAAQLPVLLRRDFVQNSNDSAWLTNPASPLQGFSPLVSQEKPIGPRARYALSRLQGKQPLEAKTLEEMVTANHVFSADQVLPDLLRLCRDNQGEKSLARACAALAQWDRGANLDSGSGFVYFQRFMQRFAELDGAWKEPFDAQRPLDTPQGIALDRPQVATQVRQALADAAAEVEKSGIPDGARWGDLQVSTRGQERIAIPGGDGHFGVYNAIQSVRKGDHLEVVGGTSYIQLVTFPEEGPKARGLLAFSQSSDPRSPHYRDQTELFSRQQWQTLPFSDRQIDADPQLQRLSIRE
Sequence of Peroxisome proliferator-activated receptor gamma (P37231 whole entry, the tested form may be a part): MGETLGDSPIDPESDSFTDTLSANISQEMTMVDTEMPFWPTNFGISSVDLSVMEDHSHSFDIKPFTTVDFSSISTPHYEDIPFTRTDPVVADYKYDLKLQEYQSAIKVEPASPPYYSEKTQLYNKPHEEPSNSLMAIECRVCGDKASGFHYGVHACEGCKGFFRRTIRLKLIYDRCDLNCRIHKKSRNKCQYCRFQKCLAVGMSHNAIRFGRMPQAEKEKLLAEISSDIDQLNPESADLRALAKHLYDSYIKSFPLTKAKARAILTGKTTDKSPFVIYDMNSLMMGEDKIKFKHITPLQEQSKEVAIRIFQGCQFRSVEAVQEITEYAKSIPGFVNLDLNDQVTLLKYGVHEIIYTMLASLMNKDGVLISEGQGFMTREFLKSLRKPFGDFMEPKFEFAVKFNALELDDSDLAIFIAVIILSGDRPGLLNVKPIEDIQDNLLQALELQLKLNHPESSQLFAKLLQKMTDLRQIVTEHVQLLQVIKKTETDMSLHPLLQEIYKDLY

O=[N+]([O-])c1ccc(N2CCSCC2)cc1
AC50 [1]: > 100 µM (inactive)

O=S(=O)(NCc1csc(-c2cccnc2)n1)c1ccc2c(c1)OCCO2
EC50 [2]: > 50 µM (not active)

O=C(O)CCN1C(=O)/C(=C/c2ccccc2Cl)SC1=S
IC50 [3]: 2 µM (active)

CCCCOC(=O)C1C2C=C[C@]3(CN(CCCOC)C(=O)[C@H]13)O2 (stereo not given in full)
EC50 [4]: > 55.7 µM (not active) | EC50 [5]: > 55.7 µM (not active)
